pIC50: −log10 of the molar value.
Biological target: T1, thrombin (Homo sapiens, UniProt P00734)
T1 construct: gene F2
Assay: thrombin generation assay in human plasma (fluorogenic Z-Gly-Gly-Arg-AMC, AUC); thrombin time prolonged

SMILES: Cn1c(CNc2ccc(C(=N)N)cc2)nc2cc(C(=O)N(CCC(=O)O[C@@H]3O[C@H](C(=O)O)[C@@H](O)[C@H](O)[C@H]3O)c3ccccn3)ccc21 [DABG, dabigatran acylglucuronide]
- pIC50: 6.36
